Results on 23 compounds are retold here after US20100317647A1 (priority 2009, published 2010).

human Cat S, sequence (P25774 115-331): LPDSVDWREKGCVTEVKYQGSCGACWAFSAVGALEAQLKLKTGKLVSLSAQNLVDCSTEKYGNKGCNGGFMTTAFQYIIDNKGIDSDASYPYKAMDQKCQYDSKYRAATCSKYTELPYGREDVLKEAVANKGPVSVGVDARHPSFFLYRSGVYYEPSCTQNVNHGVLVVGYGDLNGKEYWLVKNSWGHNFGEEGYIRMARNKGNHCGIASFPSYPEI

The experiment addresses human Cat S (Homo sapiens, UniProt P25774). Description: Cathepsin enzyme inhibition assay (fluorogenic peptide substrate cleavage). The experiment is classed as biochemical. The conditions noted are these: human Cat S 1 nM; substrate Z-Val-Val-Arg-AMC 20 μM; pH 6.5; fluorescence over 20 minutes. As to the method: Cathepsin Enzyme Inhibition Assay
Enzyme activity is measured by observing the increase in fluorescence intensity caused by cleavage of a peptide substrate containing a fluorophore whose emission is quenched in the intact peptide.
Assay buffer: 100 mM potassium phosphate pH 6.5, EDTA-Na 5 mM, Triton X-100 0.001%, DTT 5 mM. Enzymes (all at 1 nM): human and mouse Cathepsin S, Cat K, Cat B, Cat L. Substrate (20 μM): Z-Val-Val-Arg-AMC, except for Cat K which uses Z-Leu-Arg-AMC (both from Bachem).
AMC=7-Amino-4-Methyl-Coumarin.
DTT=dithiothreitol. Final volume: 100 μL.
Excitation 360 nm, Emission 465 nm.
Enzyme is added to the substance dilutions in 96-well microtitre plates and the reaction is started with substrate. Fluorescence emission is measured over 20 minutes, during which time a linear increase is observed in the absence of inhibitor. IC50 are calculated by standard methods. Inhibition of human Cat S, mouse Cat S, human Cat K, mouse Cat K, human Cat B, mouse Cat B, human Cat L and mouse Cat L have been measured separately. The results obtained for human Cat S are expressed in the following table.
Take `N#CCNC(=O)[C@@H]1CC(S(=O)(=O)c2ccccc2Cl)C[C@H]1COc1ccc(O)nn1` (mixture of isomers) [Example 107, (1R,2R,4R)-4-(2-Chloro-benzenesulfonyl)-2-(6-hydroxy-pyridazin-3-yloxymethyl)-cyclopentanecarboxylic acid cyanomethylamide and (1R,2R,4S)-4-(2-Chloro-benzenesulfonyl)-2-(6-hydroxy-pyridazin-3-yloxymethyl)-cyclopentanecarboxylic acid cyanomethylamide]: the IC50 was determined as 20.2 nM.

`N#CC1(NC(=O)[C@@H]2CC(S(=O)(=O)c3ccccc3Cl)C[C@H]2COc2ccc(O)nn2)CC1` (mixture of isomers) [Example 108, (1R,2R,4S)-4-(2-Chloro-benzenesulfonyl)-2-(6-hydroxy-pyridazin-3-yloxymethyl)-cyclopentanecarboxylic acid(1-cyano-cyclopropyl)-amide and (1R,2R,4R)-4-(2-Chloro-benzenesulfonyl)-2-(6-hydroxy-pyridazin-3-yloxymethyl)-cyclopentanecarboxylic acid(1-cyano-cyclopropyl)-amide]: 21.2 nM corresponded to half-maximal inhibition (IC50).

`Cc1ccc(S(=O)(=O)C2C[C@@H](C(=O)NC3(C#N)CC3)[C@H](C(=O)N3CCC(F)(F)C3)C2)nn1` (mixture of isomers) [Example 224, (1R,2R,4S)-2-(3,3-Difluoro-pyrrolidine-1-carbonyl)-4-(6-methyl-pyridazine-3-sulfonyl)-cyclopentanecarboxylic acid (1-cyano-cyclopropyl)-amide and (1R,2R,4R)-2-(3,3-Difluoro-pyrrolidine-1-carbonyl)-4-(6-methyl-pyridazine-3-sulfonyl)-cyclopentanecarboxylic acid (1-cyano-cyclopropyl)-amide]: the IC50 came to 32 nM.

The compound `CO[C@@H]1C[C@H](S(=O)(=O)c2ccc(-c3ccc(F)cn3)cc2C(F)(F)F)C[C@H]1C(=O)NC1(C#N)CC1` (racemic) [Example 30, (1R,2R,4R) and (1S,2S,4S)-4-[4-(5-Fluoro-pyridin-2-yl)-2-trifluoromethyl-benzenesulfonyl]-2-methoxy-cyclopentanecarboxylic acid (1-cyano-cyclopropyl)-amide] showed an IC50 of 1 nM.

With `CO[C@@H]1C[C@H](S(=O)(=O)c2ccc(-c3ccccn3)cc2C(F)(F)F)C[C@H]1C(=O)NC1(C#N)CC1` (racemic) [Example 41, (1R,2R,4R) and (1S,2S,4S)-2-Methoxy-4-(4-pyridin-2-yl-2-trifluoromethyl-benzenesulfonyl)-cyclopentanecarboxylic acid (1-cyano-cyclopropyl)-amide], the IC50 was 0.1 nM.

For `N#CCNC(=O)[C@@H]1CC[C@H](S(=O)(=O)c2ccccc2Cl)C1` (racemic) [Example 43, 3-(2-Chloro-benzenesulfonyl)-cyclopentanecarboxylic acid cyanomethyl-amide], half-maximal inhibition (IC50) was put at 345 nM.

For `CO[C@@H]1C[C@H](S(=O)(=O)c2ccccc2C(F)(F)F)C[C@H]1C(=O)NC1(C#N)CC1` (racemic) [Example 46, (1R,2R,4R) and (1S,2S,4S)-2-Methoxy-4-(2-trifluoromethyl-benzenesulfonyl)-cyclopentanecarboxylic acid (1-cyano-cyclopropyl)-amide], the IC50 was determined as 5.8 nM. Compared with the last compound, the IC50 is about 59-fold lower.

On to `CO[C@@H]1C[C@H](S(=O)(=O)c2ccccc2C(F)(F)F)C[C@H]1C(=O)NCC#N` (racemic) [Example 47, (1R,2R,4R) and (1S,2S,4S)-2-Methoxy-4-(2-trifluoromethyl-benzenesulfonyl)-cyclopentanecarboxylic acid cyanomethyl-amide], for which the IC50 turned out to be 7.8 nM. This IC50 and that of the compound before are within 1.5-fold of each other.

Regarding `N#CC1(NC(=O)[C@@H]2C[C@@H](S(=O)(=O)c3ccccc3Cl)C[C@H]2O)CC1` (racemic) [Example 48, (1R,2R,4R) and (1S,2S,4S)-4-(2-Chloro-benzenesulfonyl)-2-hydroxy-cyclopentanecarboxylic acid (1-cyano-cyclopropyl)-amide], inhibition was half-maximal at 120 nM (IC50).

In turn, `N#CCNC(=O)[C@@H]1C[C@@H](S(=O)(=O)c2ccccc2Cl)C[C@H]1O` (racemic) [Example 49, (1R,2R,4R) and (1S,2S,4S)-4-(2-Chloro-benzenesulfonyl)-2-hydroxy-cyclopentanecarboxylic acid cyanomethyl-amide] showed an IC50 of 82.3 nM.

On to `CO[C@@H]1C[C@H](S(=O)(=O)c2ccc(Cl)cc2Cl)C[C@H]1C(=O)NC1(C#N)CC1` (racemic) [Example 50, (1R,2R,4R) and (1S,2S,4S)-4-(2,4-Dichloro-benzenesulfonyl)-2-methoxy-cyclopentanecarboxylic acid (1-cyano-cyclopropyl)-amide], for which the IC50 worked out at 25 nM. Against the preceding compound, the IC50 is about 3.3-fold lower.

For the compound `CO[C@@H]1C[C@H](S(=O)(=O)c2ccc(Cl)cc2Cl)C[C@H]1C(=O)NCC#N` (racemic) [Example 51, (1R,2R,4R) and (1S,2S,4S)-4-(2,4-Dichloro-benzenesulfonyl)-2-methoxy-cyclopentanecarboxylic acid cyanomethyl-amide], inhibition was half-maximal at 20 nM (IC50).

The compound `N#CC1(NC(=O)[C@H]2C[C@@H](S(=O)(=O)c3ccccc3Cl)C[C@@H]2O)CC1` (racemic) [Example 52, (1S,2S,4R) and (1R,2R,4S)-4-(2-Chloro-benzenesulfonyl)-2-hydroxy-cyclopentanecarboxylic acid (1-cyano-cyclopropyl)-amide] had an IC50 of 11700 nM. Compared with the last compound, the IC50 is about 580-fold higher.

`N#CCNC(=O)[C@H]1C[C@@H](S(=O)(=O)c2ccccc2Cl)C[C@@H]1O` (racemic) [Example 53, (1S,2S,4R) and (1R,2R,4S)-4-(2-Chloro-benzenesulfonyl)-2-hydroxy-cyclopentanecarboxylic acid cyanomethyl-amide] yielded an IC50 of 6690 nM.

The compound `CCCO[C@@H]1C[C@H](S(=O)(=O)c2ccccc2C(F)(F)F)C[C@H]1C(=O)NC1(C#N)CC1` (racemic) [Example 54, (1R,2R,4R) and (1S,2S,4S)-2-Propoxy-4-(2-trifluoromethyl-benzenesulfonyl)-cyclopentanecarboxylic acid (1-cyano-cyclopropyl)-amide] had an IC50 of 2.1 nM. Against the preceding compound, the IC50 is about 3200-fold lower.

In the case of `CCCO[C@@H]1C[C@H](S(=O)(=O)c2ccccc2C(F)(F)F)C[C@H]1C(=O)NCC#N` (racemic) [Example 55, (1R,2R,4R) and (1S,2S,4S)-2-Propoxy-4-(2-trifluoromethyl-benzenesulfonyl)-cyclopentanecarboxylic acid cyanomethyl-amide], the midpoint of inhibition, the IC50, lay at 2.1 nM.

Consider `CO[C@@H]1C[C@H](S(=O)(=O)c2ccc(F)cc2Cl)C[C@H]1C(=O)NC1(C#N)CC1` (racemic) [Example 56, (1R,2R,4R) and (1S,2S,4S)-4-(2-Chloro-4-fluoro-benzenesulfonyl)-2-methoxy-cyclopentanecarboxylic acid (1-cyano-cyclopropyl)-amide], for which the IC50 amounted to 24.8 nM.

`CO[C@@H]1C[C@H](S(=O)(=O)c2ccc(Oc3ccc(F)cc3)cc2Cl)C[C@H]1C(=O)NC1(C#N)CC1` (racemic) [Example 57, (1R,2R,4R) and (1S,2S,4S)-4-[2-Chloro-4-(4-fluoro-phenoxy)-benzenesulfonyl]-2-methoxy-cyclopentanecarboxylic acid (1-cyano-cyclopropyl)-amide]: it took 21.8 nM to reach half-maximal inhibition (IC50).

`CO[C@@H]1C[C@H](S(=O)(=O)c2ccc(Br)cc2C(F)(F)F)C[C@H]1C(=O)NC1(C#N)CC1` (racemic) [Example 58, (1R,2R,4R) and (1S,2S,4S)-4-(4-Bromo-2-trifluoromethyl-benzenesulfonyl)-2-methoxy-cyclopentanecarboxylic acid (1-cyano-cyclopropyl)-amide]: the IC50 was determined as 6.2 nM.

As to `CO[C@@H]1C[C@H](S(=O)(=O)c2ccc(-n3cccn3)cc2Cl)C[C@H]1C(=O)NC1(C#N)CC1` (racemic) [Example 59, (1R,2R,4R) and (1S,2S,4S)-4-(2-Chloro-4-pyrazol-1-yl-benzenesulfonyl)-2-methoxy-cyclopentanecarboxylic acid (1-cyano-cyclopropyl)-amide], the IC50 stood at 4 nM.

Regarding `CO[C@@H]1C[C@H](S(=O)(=O)c2ccc(O[C@H](C)C(F)(F)F)cc2Cl)C[C@H]1C(=O)NC1(C#N)CC1` (racemic) [Example 60, (1R,2R,4R) and (1S,2S,4S)-4-[2-Chloro-4-((R/S)-2,2,2-trifluoro-1-methyl-ethoxy)-benzenesulfonyl]-2-methoxy-cyclopentanecarboxylic acid (1-cyano-cyclopropyl)-amide], the IC50 turned out to be 26.5 nM.

With `CO[C@@H]1C[C@H](S(=O)(=O)c2ccc(-c3nc(C)cs3)cc2C(F)(F)F)C[C@H]1C(=O)NC1(C#N)CC1` (racemic) [Example 61, (1R,2R,4R) and (1S,2S,4S)-2-Methoxy-4-[4-(4-methyl-thiazol-2-yl)-2-trifluoromethyl-benzenesulfonyl]-cyclopentanecarboxylic acid (1-cyano-cyclopropyl)-amide], inhibition was half-maximal at 0.3 nM (IC50).

For `CO[C@@H]1C[C@H](S(=O)(=O)c2ccc(-c3ccc(F)cc3F)cc2C(F)(F)F)C[C@H]1C(=O)NC1(C#N)CC1` (racemic) [Example 62, (1R,2R,4R) and (1S,2S,4S)-4-(2′,4′-Difluoro-3-trifluoromethyl-biphenyl-4-sulfonyl)-2-methoxy-cyclopentanecarboxylic acid (1-cyano-cyclopropyl)-amide], 1.4 nM corresponded to half-maximal inhibition (IC50).

In general, IC50 refers to the concentration needed to halve the response being measured.
